Consider 32 compounds from PubChem BioAssay (NCI).

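Grown in 96-well plates, cells were treated for 48 hours with each compound at five concentrations. Insufficient inhibition: endpoint recorded as highest concentration tested. TGI marks complete inhibition of growth.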 Bounds are passed on as bounds.

For the first assay, the system named is CCRF-CEM leukemia. As to the kind of experiment: inhibition of tumour cell growth, NCI panel, 48 h.
Take `O=C(OCC1OC2OC(c3ccccc3)(n3ccc4c([N+](=O)[O-])ccnc43)OC2C1OC(=O)c1ccccc1)c1ccccc1` (stereo unspecified): the TGI is above 100 µM.
The compound `Cc1ccc(/C(O)=C/C(=O)C(=O)/C=C(\O)c2ccc(C)cc2C)c(C)c1` came in with a TGI of 3.17 µM.
For `CC1=COC(C)(C=C(C#N)C#N)CC1` (stereo unspecified), the TGI was above 100 µM.
`O=C(NCCCCCCNCc1cccc2ccccc12)Nc1cccc2ccccc12` displayed a TGI above 100 µM.
The compound `Cc1ccc([C@H]2CC(=O)C[C@H](c3ccc(C)cc3)C23C(=O)c2ccccc2C3=O)cc1` showed a TGI of 59.9 µM.
The compound `O=c1c2ncn(COCCCl)c2n(-c2ccccc2)c(=S)n1-c1ccccc1` came in with a TGI above 100 µM.
Turning to `COc1ccc(/C=N/N=C(\N)NO)c(O)c1`, the TGI was above 10 µM.
As for `OCC1OC(n2cnc3c(Cl)nc(Nc4ccccc4)nc32)CC1O` (stereo unspecified), the TGI was above 100 µM.
`NCCSc1nc2ccccc2c(=O)n1-c1ccccc1`: the TGI was above 100 µM.
Consider `Nc1ccc(N=Nc2ccccc2)cc1`, for which the TGI is above 100 µM.
Regarding `CN(NC(=O)c1cccs1)C1=NCCCN1`, the TGI was above 100 µM.
As for `c1cc2nnnn2nc1N1CCCC1`, the TGI is above 100 µM.
As to `N#Cc1c(-c2ccccc2)nc(-c2ccccc2)sc1=S`, the TGI is above 100 µM.
`COc1cc(Nc2c3ccccc3nc3ccccc23)ccc1NS(C)(=O)=O` registered a TGI above 100 µM.
Compound `CCn1nc2c3c(ncn3C(C)(C)O2)c1=O` returned a TGI above 100 µM.
Compound `O=C1CCCCC(=O)OC2(CCCCC2=O)CC1` (stereo unspecified) showed a TGI above 100 µM.
Same read-out and setting: next, `CCCCCC(=O)NC(=S)Nc1nn[nH]n1`: above 100 µM; `CCC(C#N)NC(=O)NC(C#N)CC` (stereo unspecified): above 100 µM; `C[C@H](N)C(=O)Nc1ccc(-c2nc3ccccc3s2)cc1`: 24.8 µM.
On the same count and under the same terms, next, `CC(=O)O[C@H]1C#C/C=C\C#CC[C@@H]2C(=O)N[C@@H]12`: above 100 µM; `Cc1ccc2nc(Cl)c(/C=N/N3C(=O)/C(=C/c4ccccc4S)N=C3c3ccccc3)cc2c1`: above 100 µM; `CN(O)C(=O)c1cccc(Cl)c1`: above 100 µM.
The compound `CCOP(=O)(OCC)c1c(C(=O)OC)cc(=O)[nH]c1-c1ccc(C)cc1` came in with a TGI of 6.91 µM.
With `COC(=O)C1=C(C(=O)OC)SC2(S1)C1=C(CCCC1)SC(C(=O)OC)=C2C(=O)OC`, the TGI came out at 8.16 µM.
On to `C1CCC2C(C1)CCCC2NC1=NCCO1` (stereo unspecified), for which the TGI is above 100 µM.
Still for that read-out and setting: as for `Cc1cn(C2CC(n3cc(Cn4cc(Br)c(=O)[nH]c4=O)nn3)C(CO)O2)c(=O)[nH]c1=O` (stereo unspecified), the figure is above 100 µM; as for `C1CNCCNCCN1`, above 100 µM.
The compound `COc1ccc(O)cc1` came in with a TGI above 100 µM.
Regarding `Cc1cn(C(Cc2ccccc2)OCCO)c(=O)[nH]c1=O` (stereo unspecified), the TGI was above 100 µM.
Consider `O=c1nc2c(c(-c3ccccc3Cl)[nH]1)COC/C2=C\c1ccccc1Cl`, for which the TGI was above 100 µM.

In another assay the test system is UO-31 renal. The experiment in a line: inhibition of tumour cell growth, NCI panel, 48 h.
In turn, `O=c1[nH]/c(=C/c2ccc(OCc3ccccc3)cn2)c(=O)[nH]/c1=C/c1ccc(O)cc1` showed a TGI of 1.4 µM.
Still for that read-out and setting: next, `N#C/C(=C\n1ccc(=O)[nH]c1=S)C(N)=O`: above 100 µM; `O=C(OCC1OC2OC(c3ccccc3)(n3ccc4c([N+](=O)[O-])ccnc43)OC2C1OC(=O)c1ccccc1)c1ccccc1` (stereo unspecified): above 100 µM; `Cc1ccc(/C(O)=C/C(=O)C(=O)/C=C(\O)c2ccc(C)cc2C)c(C)c1`: 3.65 µM.
The compound `CC1=COC(C)(C=C(C#N)C#N)CC1` (stereo unspecified) came in with a TGI above 100 µM.
As to `O=C(NCCCCCCNCc1cccc2ccccc12)Nc1cccc2ccccc12`, the TGI was above 100 µM.
Regarding `Cc1ccc([C@H]2CC(=O)C[C@H](c3ccc(C)cc3)C23C(=O)c2ccccc2C3=O)cc1`, the TGI is above 100 µM.
As to `O=c1c2ncn(COCCCl)c2n(-c2ccccc2)c(=S)n1-c1ccccc1`, the TGI was above 100 µM.
In the case of `COc1ccc(/C=N/N=C(\N)NO)c(O)c1`, the TGI was above 10 µM.
`OCC1OC(n2cnc3c(Cl)nc(Nc4ccccc4)nc32)CC1O` (stereo unspecified) registered a TGI of 33.7 µM.
`NCCSc1nc2ccccc2c(=O)n1-c1ccccc1`: the TGI was above 100 µM.
As for `Nc1ccc(N=Nc2ccccc2)cc1`, the TGI was above 100 µM.
On to `CN(NC(=O)c1cccs1)C1=NCCCN1`, for which the TGI was above 100 µM.
`c1cc2nnnn2nc1N1CCCC1`: the TGI is above 100 µM.
Take `N#Cc1c(-c2ccccc2)nc(-c2ccccc2)sc1=S`: the TGI was above 100 µM.
On to `COc1cc(Nc2c3ccccc3nc3ccccc23)ccc1NS(C)(=O)=O`, for which the TGI was determined as 16.9 µM.
As for `CCn1nc2c3c(ncn3C(C)(C)O2)c1=O`, the TGI is above 100 µM.
Same read-out and setting: as for `O=C1CCCCC(=O)OC2(CCCCC2=O)CC1` (stereo unspecified), the figure is above 100 µM; as for `CCCCCC(=O)NC(=S)Nc1nn[nH]n1`, above 100 µM.
Still for that read-out and setting: next, `CCC(C#N)NC(=O)NC(C#N)CC` (stereo unspecified): above 100 µM; `C[C@H](N)C(=O)Nc1ccc(-c2nc3ccccc3s2)cc1`: 28.4 µM; `CC(=O)O[C@H]1C#C/C=C\C#CC[C@@H]2C(=O)N[C@@H]12`: above 62.8 µM.
The compound `Cc1ccc2nc(Cl)c(/C=N/N3C(=O)/C(=C/c4ccccc4S)N=C3c3ccccc3)cc2c1` displayed a TGI above 100 µM.
`CN(O)C(=O)c1cccc(Cl)c1` registered a TGI above 100 µM.
`CCOP(=O)(OCC)c1c(C(=O)OC)cc(=O)[nH]c1-c1ccc(C)cc1` gave a TGI of 13.8 µM.
The same measure, in the same setting: as for `COC(=O)C1=C(C(=O)OC)SC2(S1)C1=C(CCCC1)SC(C(=O)OC)=C2C(=O)OC`, the figure is 10.9 µM; as for `C1CCC2C(C1)CCCC2NC1=NCCO1` (stereo unspecified), above 100 µM; as for `Cc1cn(C2CC(n3cc(Cn4cc(Br)c(=O)[nH]c4=O)nn3)C(CO)O2)c(=O)[nH]c1=O` (stereo unspecified), above 100 µM.
The compound `C1CNCCNCCN1` yielded a TGI above 100 µM.
Compound `COc1ccc(O)cc1` yielded a TGI above 100 µM.
Compound `Cc1cn(C(Cc2ccccc2)OCCO)c(=O)[nH]c1=O` (stereo unspecified) showed a TGI above 100 µM.
The compound `O=c1nc2c(c(-c3ccccc3Cl)[nH]1)COC/C2=C\c1ccccc1Cl` showed a TGI above 100 µM.

A further assay concerns M19-MEL melanoma. As to the kind of experiment: inhibition of tumour cell growth, NCI panel, 48 h.
`COc1cc(Nc2c3ccccc3nc3ccccc23)ccc1NS(C)(=O)=O` yielded a TGI of 22.3 µM.
In the case of `COc1ccc(O)cc1`, the TGI was above 100 µM.

In another assay the test system is KM20L2 colon. As to the kind of experiment: inhibition of tumour cell growth, NCI panel, 48 h.
For the compound `COc1cc(Nc2c3ccccc3nc3ccccc23)ccc1NS(C)(=O)=O`, the TGI is 17.1 µM.
In turn, `COc1ccc(O)cc1` registered a TGI above 100 µM.
